In US10611750B2, “Tetrahydroquinoline compositions as bet bromodomain inhibitors” (FORMA Therapeutics, Inc., priority 2013, dated 2020):
Blank lines part the entries; values can stand above or below the compound they belong to.

Assays:
[1] = target: T1, BRD4 Bromodomain 2 (BRD4 BD2) (Homo sapiens, UniProt O60885); assay: AlphaScreen binding assay, BRD4 BD2; details: His-tagged BRD4 BD2 100 nM, biotinylated H4 (1-21) K5/8/12/16 tetra-acetylated peptide 100 nM, compounds listed under IC50 range headings
T1 construct: 333-460 were cloned, expressed, and purified to homogeneity
Protocol: The binding of Example compounds to BRD4 Bromodomain 1 and BRD4 Bromodomain 2 was assessed using 384-well AlphaScreen assay technology. His-epitope tagged BRD4 BD144-168 and BRD4 BD2333-460 were cloned, expressed, and purified to homogeneity. BRD4 BD1 and BRD4 BD2 binding and inhibition was assessed by monitoring the engagement of biotinylated Histone H4 (1-21) K5/8/12/16 tetra-acetylated peptide with the targets using the AlphaScreen technology (PerkinElmer). Specifically, in a 384-well black or white flat bottom plate, BRD4 BD1 (50 nM final) or BRD4 BD2 (100 nM final) was combined with peptide (50 nM final for BD1 or 100 nM final for BD2) in 50 mM HEPES (pH 7.3), 100 mM NaCl, 0.1% (w/v) BSA, and 0.01% (w/v) Triton X-100 either in the presence of DMSO (final 1.25% DMSO) or compound dilution series in DMSO. Alpha streptavidin donor beads and Nickel-chelate acceptor beads were added to a final concentration of 10 μg/ml each. After a minimum of 1 hour equilibration, plates were read on a BMG PHERAstar FS multi-label reader (BMG LabTech). The half maximal inhibitory concentration (IC50) values were calculated using IDBS Activity Base software with a four parameter logistic curve fit by the equation y=A+((B−A)/(1+((C/x)^D))), wherein A denotes the bottom plateau of the curve, B denotes the top plateau of the curve, C denotes the x value at the middle of the curve, D denotes the slope factor, x denotes the original known x values, and y denotes the original known y values. Data was fitted using the Levenburg Marquardt algorithm.

[2] = target: T2, BRD4 Bromodomain 1 (BRD4 BD1) (Homo sapiens, UniProt O60885); assay: AlphaScreen binding assay, BRD4 BD1; details: His-tagged BRD4 BD1 50 nM, biotinylated H4 (1-21) K5/8/12/16 tetra-acetylated peptide 50 nM, compounds listed under IC50 range headings
T2 construct: 44-168 and BRD4 BD2
Outline: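 An AlphaScreen competition format was used with His-BRD4 BD1 or BD2 and biotin-H4 K5/8/12/16-acetyl peptide, each at matched final levels of 50 nM (BD1) or 100 nM (BD2). Incubation in HEPES/NaCl buffer with 0.1% BSA and 0.01% Triton X-100 ran ≥1 h before IC50 determination.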

Compound: CC(=O)N1c2ccc(-c3cnn(C4CC4)c3)c(Oc3nc(C)cc(C)n3)c2CC[C@@H]1C [I-90, (S)-1-(6-(1-cyclopropyl-1H-pyrazol-4-yl)-5-(4,6-dimethylpyrimidin-2-yloxy)-2-methyl-3,4-dihydroquinolin-1 (2H)-yl)ethanone]
- IC50 [1]: 50 to 500 nM
- IC50 [2]: 1000 to 10000 nM

Compound: COC(=O)N1c2ccc(-c3cnn(C4CCNCC4)c3)c(OCCN(C)S(C)(=O)=O)c2CC[C@@H]1C [I-474]
- IC50 [1]: 50 to 500 nM
- IC50 [2]: 1000 to 10000 nM

Compound: COC(=O)N1c2ccc(-c3cnn(CCS(C)(=O)=O)c3)c(OC[C@H]3CCNC3)c2CC[C@@H]1C [I-475]
- IC50 [1]: 50 to 500 nM
- IC50 [2]: 1000 to 10000 nM

Compound: CC(=O)N1c2ccc(-c3cnn(CC(C)(C)O)c3)c(OCC(=O)N(C)C)c2CC[C@@H]1C [I-418]
- IC50 [1]: 50 to 500 nM
- IC50 [2]: 1000 to 10000 nM

Compound: CC(=O)N1c2ccc(-c3cnn(CCO)c3)c(Oc3nc(C)cc(C)n3)c2CC[C@@H]1C [I-544]
- IC50 [1]: 50 to 500 nM
- IC50 [2]: 1000 to 10000 nM

Compound: CC(=O)N1c2ccc(-c3cnn(CC(C)(C)O)c3)c(OCC(C)C)c2CC[C@@H]1C [I-421]
- IC50 [1]: 50 to 500 nM
- IC50 [2]: 1000 to 10000 nM

Compound: CC(=O)N1c2ccc(-c3cnn(CCS(C)(=O)=O)c3)c(OC[C@H]3CCC(=O)N3)c2CC[C@@H]1C [I-432]
- IC50 [1]: 50 to 500 nM
- IC50 [2]: 1000 to 10000 nM

Compound: COC(=O)N1c2ccc(-c3cnn(C4CCNCC4)c3)c(OCC3CCOCC3)c2CC[C@@H]1C [I-451]
- IC50 [1]: 50 to 500 nM
- IC50 [2]: 1000 to 10000 nM

Compound: CC(=O)N1c2ccc(-c3cnn(CCO)c3)c(OCCN(C)S(C)(=O)=O)c2CC[C@@H]1C [I-438]
- IC50 [1]: 50 to 500 nM
- IC50 [2]: 1000 to 10000 nM

Compound: COC(=O)N1c2ccc(-c3cnn(CCO)c3)c(OCC(C)C)c2CC[C@@H]1C [I-457]
- IC50 [1]: 50 to 500 nM
- IC50 [2]: 1000 to 10000 nM

Compound: CCS(=O)(=O)c1ccc(-c2ccc3c(c2OCC(=O)N(C)C)CC[C@H](C)N3C(C)=O)cc1 [I-485]
- IC50 [1]: ≥ 500 nM
- IC50 [2]: 1000 to 10000 nM

Compound: CC(=O)N1c2ccc(-c3ccc(S(C)(=O)=O)cc3)c(Oc3ccccc3)c2CCC1C (racemic) [I-111, rac-1-(2-methyl-6-(4-(methylsulfonyl)phenyl)-5-phenoxy-3,4-dihydroquinolin-1(2H)-yl)ethanone]
- IC50 [1]: < 50 nM
- IC50 [2]: 1000 to 10000 nM

Compound: CC(=O)N1c2ccc(-c3cnn(C4CC4)c3)c(OCc3ccccn3)c2CC[C@@H]1C [I-403]
- IC50 [1]: 50 to 500 nM
- IC50 [2]: 1000 to 10000 nM

Compound: CC(=O)N1c2ccc(-c3cnn(C4CCNCC4)c3)c(OCC(=O)N(C)C)c2CC[C@@H]1C [I-419]
- IC50 [1]: 50 to 500 nM
- IC50 [2]: 1000 to 10000 nM

The remaining lines, values ahead:

- IC50 [1]: 50 to 500 nM
- IC50 [2]: 1000 to 10000 nM
Compound: CC(=O)N1c2ccc(-c3cnn(C4CC4)c3)c(OCC(C)(F)F)c2CC[C@@H]1C [I-37, (S)-1-(6-(1-cyclopropyl-1H-pyrazol-4-yl)-5-(2,2-difluoropropoxy)-2-methyl-3,4-dihydroquinolin-1(2H)-yl)ethanone]

- IC50 [1]: 50 to 500 nM
- IC50 [2]: 1000 to 10000 nM
Compound: COC(=O)N1c2ccc(-c3cnn(C4CCNCC4)c3)c(OC[C@H]3CCC(=O)N3)c2CC[C@@H]1C [I-470]

- IC50 [1]: ≥ 500 nM
- IC50 [2]: ≥ 10000 nM
Compound: CC(=O)N1c2ccc(-c3cccc(C(=O)N4CCOCC4)c3)c(OCC(=O)N(C)C)c2CC[C@@H]1C [I-489]

- IC50 [1]: 50 to 500 nM
- IC50 [2]: 1000 to 10000 nM
Compound: CCCOc1c(-c2cccc(S(C)(=O)=O)c2)ccc2c1CC[C@H](C)N2C(C)=O [I-492]

- IC50 [1]: 50 to 500 nM
- IC50 [2]: 1000 to 10000 nM
Compound: CC(=O)N1c2ccc(-c3cnn(CC(C)(C)O)c3)c(OCC3CCOCC3)c2CC[C@@H]1C [I-414]

- IC50 [1]: ≥ 500 nM
- IC50 [2]: ≥ 10000 nM
Compound: CC(=O)N1c2cccc(OCC3CCCC3)c2CC[C@@H]1C [I-607]

- IC50 [1]: 50 to 500 nM
- IC50 [2]: 1000 to 10000 nM
Compound: COC(=O)N1c2ccc(-c3cnn(CC(C)(C)O)c3)c(OCCN(C)S(C)(=O)=O)c2CC[C@@H]1C [I-472]

- IC50 [1]: 50 to 500 nM
- IC50 [2]: 1000 to 10000 nM
Compound: CCCOc1c(-c2ccc3c(c2)CCN3S(C)(=O)=O)ccc2c1CC[C@H](C)N2C(C)=O [I-500]

- IC50 [1]: 50 to 500 nM
- IC50 [2]: 1000 to 10000 nM
Compound: COC(=O)N1c2ccc(-c3cnn(CCS(C)(=O)=O)c3)c(OCCN(C)S(C)(=O)=O)c2CC[C@@H]1C [I-471]
